Test system: 186277-243-T-J2-PDC complex spheroid viability
Test: Anticancer human tumor 186277-243-T-J2-PDC patient-derived colon adenocarcinoma cell line growth inhibition
Details: for IC50: curve of first compound; for viability, T/C: stronger effect = lower value
Excerpt: Multicellular complex tumor spheroid response to LSD1 Inhibitor Iadademstat in combination with a variety of drugs and investigational agents in selected tumor cell lines
The current study was undertaken to assess response to LSD1 inhibitors in combination with standard-of-care drugs and investigational agents in solid tumor complex spheroid models as well as in the K-562 leukemia. Complex spheroids include a stromal component modeled by human endothelial cells (HUVEC) and fibroblasts modeled by human mesenchymal stem cells (MSCs). The concentration ranges selected for each drug and investigational agent were based upon clinically achievable concentrations if the clinical Cmax of the agent was known.
Compounds. The drugs and investigational agents used in this study are listed on Table 1. All of the agents used, including staurosporine (NSC755774) and gemcitabine (NSC613327), were obtained from the Developmental Therapeutics Program, NCI. FDA-approved anticancer drugs are available from the NCI at http://dtp.nci.nih.gov/branches/dscb/oncology_drugset_explanation.html. Drugs and investigational agents were >95% pure by proton nuclear magnetic resonance (NMR) and liquid chromatography/mass spectrometry (LC/MS). Stock solutions were prepared at 400x in DMSO, stored at -70 degrees C, and diluted in fresh medium prior to their use. The final concentration of DMSO in cell culture wells never exceeded 0.25% (v/v). The FDA-approved anticancer drug set is available from the Developmental Therapeutics Program at https://dtp.cancer.gov/organization/dscb/obtaining/available_plates.htm. All drugs and investigational agents were tested over a range starting from a high concentration at or near the clinical Cmax and decreasing in half-log increments. If the clinical Cmax for an agent had not been determined, the highest concentration tested was 10 microM.
Cell Lines. The patient-derived cancer cell (PDC) lines: 292921-168-R-J2-PDC, K24384-001-R-PDC, and 521955-158-R2-J5-PDC pancreatic carcinomas, 556581-035-R-J1 ovarian carcinoma, 324938-238-R-J1-PDC, 855422-203-R-J1-PDC and 883617-216-R-J1-PDC urothelial bladder carcinomas, 743489-274-T-PDC renal cell carcinoma, 138582-R-J1 Merkel cell tumor, K60290-347-R-J1 and K57222-313-R-J1-PDC glioblastomas, 653999-131-R-J2-PDC, LG0703-F948-PDC, and 349418-098-R-PDC non-small cell lung carcinomas, 885512-296-R-J2-PDC, 171881-019-R-J1-PDC breast carcinomas and 186277-243-T-J2-PDC and 233499-124-R-J2-PDC colon carcinomas were obtained from the NCI Patient-Derived Models Repository (PDMR, https://pdmr.cancer.gov). The established cell lines NCI/ADR-RES (RRID:CVCL_14520 and OVCAR-5 (RRID:CVCL_1628) ovarian carcinomas, 786-O (RRID:CVCL_1051) and A498 (RRID:CVCL_A498) renal cell carcinoma, NCI-H211 (ATCC, cat. CRL-5824; RRID:CVCL_1529), NCI-H196 (ATCC, cat. CRL-5823, RRID:CVCL_1509), SW 1271 (ATCC, cat. CRL-2177, RRID:CVCL_1716) and NCI-H1876 (ATCC, cat. CRL-5902, RRID:CVCL_1503) small cell lung carcinomas, MDA-MB-231 (RRID:CVCL_0062) and MDA-MB-468 (RRID:CVCL_0419)breast carcinomas (10-12). Pooled donor human umbilical vein endothelial cells (HUVEC, Lonza, cat. CC-2519) and human mesenchymal stem cells (hMSC, Lonza, cat. PT-2501) were purchased from Lonza (Walkersville, MD).
Cell Culture. All cells were maintained in an incubator at 37 degrees C and 5% CO2 with 95% humidity. The PDC lines were cultured according to standard operating procedures established by the NCI PDMR (https://pdmr.cancer.gov). Briefly all PDCs were thawed and cultured in Matrigel-coated flasks prepared with a working solution of 1X Ham's F-12 nutrient mix, without supplementation (Invitrogen, Waltham, MA, cat. 11765054), 100 U/mL penicillin-streptomycin (Invitrogen, cat. 15140122), and 2.5% Matrigel (Corning Inc., Corning, NY, cat. 354248) for the first three passages. […]

[1] = second compound 0.1 µM, first compound 0.00949 µM
[2] = second compound 0.1 µM, first compound 0.03 µM
[3] = second compound 0.1 µM, first compound 0.0949 µM
[4] = second compound 0.1 µM, first compound 0.3 µM
[5] = second compound 0.316 µM, first compound 0.00949 µM
[6] = second compound 0.316 µM, first compound 0.03 µM
[7] = second compound 0.316 µM, first compound 0.0949 µM
[8] = second compound 0.316 µM, first compound 0.3 µM
[9] = second compound 1 µM, first compound 0.00949 µM
[10] = second compound 1 µM, first compound 0.03 µM
[11] = second compound 1 µM, first compound 0.0949 µM
[12] = second compound 1 µM, first compound 0.3 µM
[13] = second compound 3.16 µM, first compound 0.00949 µM
[14] = second compound 3.16 µM, first compound 0.03 µM
[15] = second compound 3.16 µM, first compound 0.0949 µM
[16] = second compound 3.16 µM, first compound 0.3 µM
[17] = second compound 10 µM, first compound 0.00949 µM
[18] = second compound 10 µM, first compound 0.03 µM
[19] = second compound 10 µM, first compound 0.0949 µM
[20] = second compound 10 µM, first compound 0.3 µM
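Note: 7 day exposure to compounds.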
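Throughout, for viability, T/C: 100% = DMSO vehicle control viability.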

## CC[C@@]1(O)C(=O)OCc2c1cc1n(c2=O)Cc2cc3c(CN(C)C)c(O)ccc3nc2-1 + NC1CC1c1ccc(-c2cccc(O)c2)cc1
Second compound 0.1 µM
  IC50: 64.1 nM
Second compound 0.316 µM
  IC50: 58.6 nM
Second compound 1 µM
  IC50: 60.9 nM
Second compound 3.16 µM
  IC50: 64.4 nM
Second compound 10 µM
  IC50: 56.7 nM
Second compound 0.1 µM, first compound 0.000316 µM
  viability, T/C: 117%
Second compound 0.1 µM, first compound 0.001 µM
  viability, T/C: 125%
Second compound 0.1 µM, first compound 0.00316 µM
  viability, T/C: 153%
Second compound 0.1 µM, first compound 0.01 µM
  viability, T/C: 116%
Second compound 0.1 µM, first compound 0.0316 µM
  viability, T/C: 74.5%
Second compound 0.1 µM, first compound 0.1 µM
  viability, T/C: 34.9%
Second compound 0.316 µM, first compound 0.000316 µM
  viability, T/C: 101%
Second compound 0.316 µM, first compound 0.001 µM
  viability, T/C: 96.5%
Second compound 0.316 µM, first compound 0.00316 µM
  viability, T/C: 139%
Second compound 0.316 µM, first compound 0.01 µM
  viability, T/C: 118%
Second compound 0.316 µM, first compound 0.0316 µM
  viability, T/C: 71.7%
Second compound 0.316 µM, first compound 0.1 µM
  viability, T/C: 31.2%
Second compound 1 µM, first compound 0.000316 µM
  viability, T/C: 90.7%
Second compound 1 µM, first compound 0.001 µM
  viability, T/C: 108%
Second compound 1 µM, first compound 0.00316 µM
  viability, T/C: 127%
Second compound 1 µM, first compound 0.01 µM
  viability, T/C: 119%
Second compound 1 µM, first compound 0.0316 µM
  viability, T/C: 73.1%
Second compound 1 µM, first compound 0.1 µM
  viability, T/C: 32.5%
Second compound 3.16 µM, first compound 0.000316 µM
  viability, T/C: 101%
Second compound 3.16 µM, first compound 0.001 µM
  viability, T/C: 97.8%
Second compound 3.16 µM, first compound 0.00316 µM
  viability, T/C: 119%
Second compound 3.16 µM, first compound 0.01 µM
  viability, T/C: 131%
Second compound 3.16 µM, first compound 0.0316 µM
  viability, T/C: 76.3%
Second compound 3.16 µM, first compound 0.1 µM
  viability, T/C: 33.6%
Second compound 10 µM, first compound 0.000316 µM
  viability, T/C: 103%
Second compound 10 µM, first compound 0.001 µM
  viability, T/C: 96.4%
Second compound 10 µM, first compound 0.00316 µM
  viability, T/C: 123%
Second compound 10 µM, first compound 0.01 µM
  viability, T/C: 116%
Second compound 10 µM, first compound 0.0316 µM
  viability, T/C: 74%
Second compound 10 µM, first compound 0.1 µM
  viability, T/C: 26.7%

## COc1cc(C2c3cc4c(cc3C(OC3OC5COC(C)OC5C(O)C3O)C3COC(=O)C23)OCO4)cc(OC)c1O (stereo not given) + NC1CC1c1ccc(-c2cccc(O)c2)cc1
Second compound 0.1 µM
  IC50: 596 nM
Second compound 0.316 µM
  IC50: 586 nM
Second compound 1 µM
  IC50: 667 nM
Second compound 3.16 µM
  IC50: 635 nM
Second compound 10 µM
  IC50: 458 nM
[1]
  viability, T/C: 107%
[2]
  viability, T/C: 134%
[3]
  viability, T/C: 116%
[4]
  viability, T/C: 73.7%
Second compound 0.1 µM, first compound 0.949 µM
  viability, T/C: 36.2%
Second compound 0.1 µM, first compound 3 µM
  viability, T/C: 17.4%
[5]
  viability, T/C: 103%
[6]
  viability, T/C: 134%
[7]
  viability, T/C: 118%
[8]
  viability, T/C: 73%
Second compound 0.316 µM, first compound 0.949 µM
  viability, T/C: 36.6%
Second compound 0.316 µM, first compound 3 µM
  viability, T/C: 18%
[9]
  viability, T/C: 99.7%
[10]
  viability, T/C: 134%
[11]
  viability, T/C: 121%
[12]
  viability, T/C: 80.9%
Second compound 1 µM, first compound 0.949 µM
  viability, T/C: 38.6%
Second compound 1 µM, first compound 3 µM
  viability, T/C: 17.7%
[13]
  viability, T/C: 100%
[14]
  viability, T/C: 137%
[15]
  viability, T/C: 133%
[16]
  viability, T/C: 79%
Second compound 3.16 µM, first compound 0.949 µM
  viability, T/C: 39.9%
Second compound 3.16 µM, first compound 3 µM
  viability, T/C: 17.4%
[17]
  viability, T/C: 94.3%
[18]
  viability, T/C: 146%
[19]
  viability, T/C: 119%
[20]
  viability, T/C: 64.1%
Second compound 10 µM, first compound 0.949 µM
  viability, T/C: 29.9%
Second compound 10 µM, first compound 3 µM
  viability, T/C: 11.2%

## Nc1ccn(C2OC(CO)C(O)C2(F)F)c(=O)n1 (stereo not given) + NC1CC1c1ccc(-c2cccc(O)c2)cc1
Second compound 0.1 µM
  IC50: 2.41 nM
Second compound 0.316 µM
  IC50: 2.18 nM
Second compound 1 µM
  IC50: 2.52 nM
Second compound 3.16 µM
  IC50: 2.31 nM
Second compound 10 µM
  IC50: 2.34 nM
Second compound 0.1 µM, first compound 0.000949 µM
  viability, T/C: 112%
Second compound 0.1 µM, first compound 0.003 µM
  viability, T/C: 35.5%
[1]
  viability, T/C: 14.2%
[2]
  viability, T/C: 11.6%
[3]
  viability, T/C: 12.2%
[4]
  viability, T/C: 13.4%
Second compound 0.316 µM, first compound 0.000949 µM
  viability, T/C: 103%
Second compound 0.316 µM, first compound 0.003 µM
  viability, T/C: 29.9%
[5]
  viability, T/C: 14.5%
[6]
  viability, T/C: 12%
[7]
  viability, T/C: 12.2%
[8]
  viability, T/C: 12.8%
Second compound 1 µM, first compound 0.000949 µM
  viability, T/C: 116%
Second compound 1 µM, first compound 0.003 µM
  viability, T/C: 38.4%
[9]
  viability, T/C: 14.9%
[10]
  viability, T/C: 12.2%
[11]
  viability, T/C: 11.9%
[12]
  viability, T/C: 13.6%
Second compound 3.16 µM, first compound 0.000949 µM
  viability, T/C: 103%
Second compound 3.16 µM, first compound 0.003 µM
  viability, T/C: 34.3%
[13]
  viability, T/C: 15.8%
[14]
  viability, T/C: 11.7%
[15]
  viability, T/C: 13.8%
[16]
  viability, T/C: 13.4%
Second compound 10 µM, first compound 0.000949 µM
  viability, T/C: 98.2%
Second compound 10 µM, first compound 0.003 µM
  viability, T/C: 36.7%
[17]
  viability, T/C: 15.5%
[18]
  viability, T/C: 11.2%
[19]
  viability, T/C: 12.7%
[20]
  viability, T/C: 13.5%

Source: PubChem BioAssay AID1918933 (Molecular Pharmacology Branch, DTP, NCI, 2023)
